According to patent US7238714B2, “Aryl or heteroaryl amide compounds” (Pfizer Japan, Inc., priority 2003, dated 2007):

Columns and labels:
hEP4 [1] = molecular target: T1, hEP4 (Homo sapiens, UniProt P35408); experiment: cAMP assay in human EP4 transfectant (functional assay); assay type: cell-based; parameters: expressed in transfected cells; host or cells: HEK293 (hEP4 cells), selected with geneticin; settings: vs 1 nM PGE2; for IC50: cAMP in HEK293 cells expressing human EP4
Description: cAMP Assay in Human EP4 Transfectant
HEK293 cells expressing human EP4 receptors (hEP4 cells) are maintained in DMEM containing 10% FBS and 500 μg/ml geneticin. For harvesting hEP4 cells, culture medium is aspirated and cells in 75 cm^2 flask are washed with 10 ml of phosphate buffered saline (PBS). Another 10 ml of PBS is added to the cells and incubated for 20 min at room temperature. Human EP4 cells are harvested by pipetting and centrifuged at 300×g for 4 min. Cells are resuspended in DMEM without neutral red at a density of 7×10^5 cells/ml containing 0.2 mM IBMX (PDE inhibitor), 1 nM PGE2 and test compounds in PCR-tubes, and incubated at 37° C. for 10 min. The reaction is stopped by heating at 100° C. for 10 min with thermal cycler. Concentration of cAMP in reaction mixtures is determined with SPA cAMP Kit (Amersham) or cAMP Screen™ (Applied Biosystems) according to the manufacture's instruction. • Reference: Eur. J. Pharmacol. 340 (1997) 227–241

hEP4 [2] = molecular target: T1, hEP4; experiment: Human EP receptor cell membrane binding assay ([3H]-PGE2); parameters: expressed in transfected cells; membrane fraction; settings: [3H]-PGE2 binding to membranes of human EP4/HEK293 transfectant; acidic and hypotonic buffer condition, MME buffer
From the text: Human EP Receptor Cell Membrane Binding Assay:
Stable Expression of Human EP1, 2, 3 and 4 Receptors in the Human Embryonic Kidney (HEK293) Cell Line
The cDNA clones of human EP1, 2, 3 and 4 receptors are obtained by polymerase chain reaction (PCR) from […] kidney or heart cDNA libraries (Clontech). Human embryonic kidney cells (HEK 293) are stably transfected with expression vectors for human EP1, 2, 3 and 4 receptors in according to the method described in the article; the journal of biological chemistry vol. 271 No. 39, pp 23642–23645.
Preparation of Membrane Fraction:
The EP1, 2, 3 and 4 transfectant are grown in Dulbecco's modified Eagle's medium containing 10% fetal bovine serum, 50 U/ml penicillin, 50 μg/ml streptomycin and 500 μg/ml G418 (selection medium) at 37° C. in a humidified atmosphere of 5% CO2 in air. For the membrane preparation, cells are harvested with phosphate buffered saline (PBS) and centrifuged at 400×g for 5 min. The pellet is suspended with child (4° C.) PBS containing 1/100 volume of protease inhibitor cocktail (SIGMA) (1 mM (4-(2-aminoethyl)-benzenesulfonyl fluoride (AEBSF)), 0.8 μM Aprotinin, 22 μM Leupeptin, 40 μM Bestatin, 15 μM Pepstatin A and 14 μM E-64). Cells are lysed with ultrasonic cell disrupter for 60-sec sonication. Then cell mixtures are centrifuged at 1,000×g for 10 minutes. The supernatant μs centrifuged at 160,000×g for 30 minutes at 4° C. The pellet is resuspended in assay buffer (10 mM 2-morpholinoeth-anesulfonic acid (MES)-KOH, 1 mM etylenediamine tetra-acetic acid (EDTA), 10 mM MgCl2, pH 6.0), and protein concentration is determined by Bradford method (Bio-Rad assay). This membrane preparation is stored at −80° C. freezer until use for binding assay.
[^3H]-PGE2 membrane binding assays are performed in the reaction mixture of 10 mM MES/KOH (pH6.0), 10 mM MgCl2, 1 mM EDTA, 1 nM [^3H]-PGE2 (Amersham TRK431, 164 Ci/mmol), 2˜10 μg of protein from membrane fraction (human EP1, 2, 3 and 4/HEK293 transfectant) and test compound (total volume is 0.1 ml in 96 well polypropylene plate). Incubation is conducted for 60 min at room temperature prior to separation of the bound and free radioligand by rapid filtration through glass fiber filters (Printed Filtermat B, 1205-404, glass fiber, double thickness, size 102×258 mm, Wallac inc., presoaked in 0.2% polyethylenimine). Filters are washed with assay buffer and the residual [^3H]-PGE2 bound to the filter is determined by liquid scintillation counter (1205 Betaplate™). Specific binding is defined as the difference between total binding and nonspecific binding which is determined in the presence of 10 μM PGE2.

T1 sequence (P35408 whole entry): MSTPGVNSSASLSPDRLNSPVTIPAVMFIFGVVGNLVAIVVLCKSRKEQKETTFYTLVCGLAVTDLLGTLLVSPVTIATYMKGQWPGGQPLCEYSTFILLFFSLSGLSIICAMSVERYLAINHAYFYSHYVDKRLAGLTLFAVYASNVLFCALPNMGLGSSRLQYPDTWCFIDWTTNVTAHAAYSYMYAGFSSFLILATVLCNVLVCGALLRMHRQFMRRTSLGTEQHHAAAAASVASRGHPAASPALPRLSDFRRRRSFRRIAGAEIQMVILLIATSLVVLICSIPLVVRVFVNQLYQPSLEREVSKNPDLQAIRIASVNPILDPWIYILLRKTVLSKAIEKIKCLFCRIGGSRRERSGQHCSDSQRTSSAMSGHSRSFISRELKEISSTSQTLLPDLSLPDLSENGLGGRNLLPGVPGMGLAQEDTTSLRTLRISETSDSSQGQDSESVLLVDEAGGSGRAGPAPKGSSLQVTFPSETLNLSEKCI

| SMILES | inhibition at 5 µM (hEP4 [1]; @ 5000 nM, read-out: functional assay human EP4 % Inh.) | IC50 (hEP4 [1]) | Ki (hEP4 [2]) |
| --- | --- | --- | --- |
| N#Cc1cnc(Oc2ccc(F)cc2)c(C(=O)NCc2ccc(C(=O)O)cc2)c1 [Example 57, 4-[({[5-CYANO-2-(4-FLUOROPHENOXY)PYRIDIN-3-YL]CARBONYL}AMINO)METHYL]BENZOIC ACID] | 75% | 1800 nM | 92 nM |
| C[C@H](NC(=O)c1cc(Cl)cnc1Oc1cccc(F)c1)c1ccc(C(=O)NS(=O)(=O)c2cccc(Cl)c2)cc1 [Example 79, 5-CHLORO-N-{(1S)-1-[4-({[(3-CHLOROPHENYL)SULFONYL]AMINO}CARBONYL)PHENYL]ETHYL}-2-(3-FLUOROPHENOXY)NICOTINAMIDE] |  | 21 nM | 0.7 nM |
| O=C(NCc1ccc(-c2nn[nH]n2)cc1)c1cc(Cl)ccc1Oc1ccc(F)cc1 [Example 76, 5-CHLORO-2-(4-FLUOROPHENOXY)-N-[4-(2H-TETRAZOL-5-YL)BENZYL]BENZAMIDE] |  | 100 nM | 1.8 nM |
| C[C@H](NC(=O)c1cc(Cl)ccc1Cc1cccc(Cl)c1)c1ccc(C(=O)O)cc1 [Example 148, 4-((1S)-1-{[5-CHLORO-2-(3-CHLOROBENZYL)BENZOYL]AMINO}ETHYL)BENZOIC ACID] |  | 3.6 nM | 0.7 nM |
| C[C@H](NC(=O)c1cc(Cl)cnc1Oc1cccc(F)c1)c1ccc(C(=O)O)cc1 [Example 48, 4-[(1S)-1-({[5-CHLORO-2-(3-FLUOROPHENOXY)PYRIDIN-3-YL]CARBONYL}AMINO)ETHYL]BENZOIC ACID] |  | 19 nM | 1 nM |
| C[C@H](NC(=O)c1cc(Cl)cnc1Oc1cccc(-c2nccs2)c1)c1ccc(C(=O)O)cc1 [Example 45, 4-{(1S)-[({5-CHLORO-2-[3-(1,3-THIAZOL-2-YL)PHENOXY]PYRIDIN-3-YL}CARBONYL)AMINO]ETHYL}BENZOIC ACID] |  | 28 nM | 0.3 nM |
| O=C(NCc1ccc(-c2nn[nH]n2)cc1)c1cc(Cl)cnc1Oc1ccc(F)cc1 [Example 74, 5-CHLORO-2-(4-FLUOROPHENOXY)-N-[4-(2H-TETRAZOL-5-YL)BENZYL]NICOTINAMIDE] |  | 140 nM | 4 nM |
| O=C(O)c1ccc(CNC(=O)c2cc(C(F)(F)F)cnc2Oc2ccc(F)cc2)cc1 [Example 56, 4-[({[2-(4-FLUOROPHENOXY)-5-(TRIFLUOROMETHYL)PYRIDIN-3-YL]CARBONYL}AMINO)METHYL]BENZOIC ACID] |  | 820 nM | 20 nM |
| C[C@H](NC(=O)c1cc(Cl)cnc1Oc1ccc(F)c(F)c1)c1ccc(C(=O)O)cc1 [Example 55, 4-[(1S)-1-({[5-CHLORO-2-(3,4-DIFLUOROPHENOXY)PYRIDIN-3-YL]CARBONYL}AMINO)ETHYL]BENZOIC ACID] |  | 20 nM | 0.7 nM |
| C[C@H](NC(=O)c1cc(Cl)ccc1Oc1ccc(F)cc1)c1ccc(C(=O)O)cc1 [Example 68, 4-((1S)-1-{[5-CHLORO-2-(4-FLUOROPHENOXY)BENZOYL]AMINO}ETHYL)BENZOIC ACID] |  | 43 nM | 2.4 nM |
